Measurements as given in patent US6410533B1, “Antibacterial compounds” (Genzyme Corporation, priority 2000, dated 2002).
Values after ≈ are worked out from the molar mass of the structure shown. Like-named read-outs stand apart in the source and are kept apart here.

Legend:
[1] = system: Staphylococcus aureus bacteria (ATCC 9604 SV); test: Minimal inhibitory concentration (MIC), broth microdilution; assay type: cell-based; details: 24 h at 37° C.
Protocol: (§1) Minimal inhibitory concentrations (MICs) for Staphylococcus aureus bacteria (ATCC 9604 SV) were determined by broth microdilution methodology following National Committee for Clinical Laboratory Standards. In the MIC determinations, the compounds were incorporated into Mueller-Hinton broth (Becton Dickinson Microbiology systems, Cockeyville, Md.) at a series of concentrations. After the test organism was grown overnight in TB broth, the broths were adjusted to the turbidity equivalent to 0.05 McFarland standard. The suspensions were diluted twenty-fold into the broth containing the compounds. […] In the IC50 determination, the method was modified to allow the rapid growth of the organisms. The inoculum suspensions were adjusted to 0.1 McFarland standard and then diluted two-fold into the wells containing TB broth and the compounds. After three to five hours incubation at 37° C., the turbidity was measured at 550 nm and inhibitory activity was defined as the concentration of antimicrobial agent that inhibits 50% growth of the organism in the microdilution wells.

[2] = system: methicillin-resistant Staphylococcus aureus (ATCC 33591); test: In vivo mouse intraperitoneal infection, mortality and % survivors over 7 days; details: 1 and 5 h post inoculation, MRSA ATCC 33591 i.p., ICR mice
Protocol: Ten male ICR mice weighing 20 grams were inoculated intraperitoneally with an LD90-100 dose (2-3×10^7 CFU/mouse) of methicillin-resistant Staphylococcus aureus (ATCC 33591) in brain-heart infusion broth containing 5% mucin. Compounds were suspended in a vehicle containing 1% cremophore EL (Sigma) in normal saline and were administered subcutaneously in a volume of 0.4 ml per mouse either 1 hour following bacterial inoculation or 1 and 5 hours post inoculation. Animals receiving two doses of drug were injected subcutaneously in the hindquarter one hour post-innoculation and in the neck area, 5 hours post-innoculation. Deaths occurring during the subsequent 7 days are recorded. Mortality and % survivor endpoints are calculated.

[3] = system: Staphylococcus aureus bacteria (ATCC 9604 SV); test: IC50 determination, growth inhibition by turbidity at 550 nm; assay type: cell-based; details: Staphylococcus aureus ATCC 9604 SV; turbidity at 550 nm after 3-5 h at 37° C.
Protocol: as §1

[4] = Staphylococcus aureus ATCC 9604 SV
[5] = ATCC9604, Staphylococcus aureus ATCC 9604 SV, read-out: MIC

SMILES | MIC [1, 4] [µg/mL] | In Vivo, double dose (% of mice rescued) ([2]; 2 × 2 mg/kg s.c.) [% @ 2 × 2 mg/kg] | In Vivo, double dose (% of mice rescued) ([2]; 2 × 20 mg/kg s.c.) [% @ 2 × 20 mg/kg] | MIC [1, 5] [µg/mL] | IC50 [3] [nM]
O=C(O)c1ccccc1C=C1C(=O)N(c2cc(Cl)cc(Cl)c2)N=C1c1ccccc1 [Compound 24] | 1.35 (≈ 3.09 µM) | 0 | 0 |  | 
CC(=O)C=C1C(=O)N(c2cc(Cl)cc(Cl)c2)N=C1c1ccccc1 [Compound 25] | 3.12 (≈ 8.69 µM) | 0 | 0 |  | 
O=C1C(=Cc2cccnc2)C(c2ccccc2)=NN1c1cc(Cl)cc(Cl)c1 [Compound 30] | 1.20 (≈ 3.04 µM) | 0 | 0 |  | 
CN1CCC(=C2C(=O)N(c3cc(Cl)cc(Cl)c3)N=C2c2ccccc2)CC1 [Compound 31, 2-(3,5-Dichloro-phenyl)-4-(1-methyl-piperidin-4-ylidene)-5-phenyl-2,4-dihydropyrazol-3-one] |  | 0 | 0 | 5 (≈ 12.5 µM) | 
O=C1C(=Cc2ccsc2)C(c2ccccc2)=NN1c1cc(Cl)cc(Cl)c1 [Compound 33] | 5.00 (≈ 12.5 µM) | 25 | 0 |  | 
O=C1C(=Cc2ccoc2)C(c2ccccc2)=NN1c1cc(Cl)cc(Cl)c1 [Compound 34] | 2.40 (≈ 6.26 µM) | 25 | 25 |  | 
O=C1Nc2ccccc2C1=C1C(=O)N(c2cc(Cl)cc(Cl)c2)N=C1c1ccccc1 [Compound 42] | 1.20 (≈ 2.76 µM) | 0 | 0 |  | 
O=C(O)C=C1C(=O)N(c2cc(Cl)cc(Cl)c2)N=C1c1ccccc1 [Compound 46] | 1.50 (≈ 4.15 µM) | 0 | 0 |  | 
COc1ccc(C(=O)C2C(=O)N(c3cc(Cl)cc(Cl)c3)N=C2c2ccccc2)cc1 (centres unmarked) [Compound 49] | 10.0 (≈ 22.8 µM) | 0 | 25 |  | 
O=C(c1ccccn1)C1C(=O)N(c2cc(Cl)cc(Cl)c2)N=C1c1ccccc1 (centres unmarked) [Compound 50, 2-(3,5-Dichloro-phenyl)-5-phenyl-4-(pyridine-2-carbonyl)-2,4-dihydro-pyrazol-3-one] |  | 0 | 0 | 10.3 (≈ 25.1 µM) | 
O=C(O)c1cccc(C=C2C(=O)N(c3cc(Cl)cc(Cl)c3)N=C2c2ccccc2)c1 [Compound 51] | 1.31 (≈ 3 µM) | 25 | 25 |  | 
O=C(O)c1ccc(C=C2C(=O)N(c3cc(Cl)cc(Cl)c3)N=C2c2ccccc2)cc1 [Compound 52] | 0.656 (≈ 1.5 µM) | 0 | 0 |  | 
CCC1=NN(c2cc(Cl)cc(Cl)c2)C(=O)C1=Cc1cccnc1 [Compound 54] | 0.750 (≈ 2.17 µM) | 0 | 12.5 |  | 
CCC1=NN(c2cc(Cl)cc(Cl)c2)C(=O)C1=Cc1ccco1 [Compound 55] | 1.50 (≈ 4.48 µM) | 0 | 25 |  | 
CCC1=NN(c2cc(Cl)cc(Cl)c2)C(=O)C1=C1C(=O)Nc2ccccc21 [Compound 56] | 1.50 (≈ 3.88 µM) | 0 | 0 |  | 
CCC1=NN(c2cc(Cl)cc(Cl)c2)C(=O)C1=CC(=O)O [Compound 57] | 6.25 (≈ 20 µM) | 0 | 0 |  | 
CCC1=NN(c2cc(Cl)cc(Cl)c2)C(=O)C1=Cc1cccc(C(=O)O)c1 [Compound 58] | 6.25 (≈ 16.1 µM) | 25 | 12.5 |  | 
CCC1=NN(c2cc(Cl)cc(Cl)c2)C(=O)C1=Cc1ccc(C(=O)O)cc1 [Compound 59] | 0.400 (≈ 1.03 µM) | 12.5 | 12.5 |  | 
O=C1CC(Cc2ccccc2)=NN1c1cc(Cl)cc(Cl)c1 [Compound 65] | 0.958 (≈ 3 µM) | 0 | 0 |  | 
O=C1C(CCc2ccccn2)C(c2ccccc2)=NN1c1cc(Cl)cc(Cl)c1 (centres unmarked) [Compound 66] | 5.13 (≈ 12.5 µM) | 25 | 0 |  | 
O=C(Nc1cc(C(F)(F)F)cc(C(F)(F)F)c1)Nc1c(-c2ccccc2)cnn1-c1ccc(C(F)(F)F)cc1 [Compound 71] |  |  |  |  | 330
O=C(Nc1cc(C(F)(F)F)cc(C(F)(F)F)c1)Nc1cc(-c2cccc(Cl)c2)nn1-c1ccc(C(F)(F)F)cc1 [Compound 78] |  |  |  |  | 206
